Test results published in article PMC12186257, “Serendipitous and Systematic Chemoproteomic Discovery of MBLAC2, HINT1, and NME1‑4 Inhibitors from Histone Deacetylase-Targeting Pharmacophores” (ACS Chemical Biology, 2025).
Like-named read-outs stand apart in the source and are kept apart here.

How the values were obtained:
[1] = test system: compound-binding proteins such as HDACs, MBLAC2, ISOC1/2, ALDH2, and GATD3A; assay: chemoproteomic competition assay, proteome-wide target binding profile; parameters: species or system human; details: dose-dependent competition
Protocol: (§1) MBLAC2 is a metalloenzyme predicted to harbor one or two Zn^2+ ions in its active site. […] In this assay, compounds of interest are incubated at increasing concentrations with a mixture of lysates of MV4–11 and SW620 cells. The compound-treated lysates are then mixed with bead-immobilized hydroxamic acid-containing compounds iA, iC, and iQ (immobilized Quisinostat), which pull down compound-binding proteins such as HDACs, MBLAC2, ISOC1/2, ALDH2, and GATD3A (Figure a) that can be identified and quantified by mass spectrometry (MS). Proteins targeted by the library compounds in a preincubation step are prevented from being pulled down by the immobilized probes, leading to a dose-dependent reduction in MS signal. Initially, 12 metal-chelating compounds were profiled at two concentrations (10 μM and 100 μM) (Figure S3).
(§2) Chemoproteomic competition assays
Sample preparation. For the MBLAC2 and HDAC inhibitor competition assay, the generation of affinity matrices, lysate generation, pulldown assay, and sample preparation were performed as described in detail in REF1. For the kinobeads assay, the generation of affinity matrices, lysate generation, pulldown assay, and sample preparation were performed as described in detail in REF2.
(§3) LC-MS/MS. The different sample types were measured with different LC-MS/MS settings. MBLAC2 2-dose competition assays were measured with the Lumos1 setup, MBLAC2 9-dose competition assays were measured with the Lumos2 setup, and kinobeads assays were measured with the Eclipse setup.
Peptides were analyzed via LC–MS/MS on a Dionex Ultimate3000 nano HPLC coupled to either one of two Orbitrap Fusion Lumos mass spectrometers, or to an Orbitrap Eclipse mass spectrometer, operated via the Thermo Scientific Xcalibur software.
In the all setups, peptides were loaded on a trap column (100 μm × 2 cm, packed in-house with Reprosil-Gold C18 ODS-3 5 μm resin, Dr. Maisch, Ammerbuch) and washed with 5 μL/min solvent A (0.1% formic acid in HPLC grade water) for 10 min. Peptides were then separated on an analytical column (75 μm × 40 cm, packed in-house with Reprosil-Gold C18 3μm resin, Dr. Maisch, Ammerbuch) using a 50 min gradient ranging from 4 to 32% solvent B (0.1% formic acid, 5% DMSO in acetonitrile) in solvent A (0.1% formic acid, 5% DMSO in HPLC grade water) at a flow rate of 300 nL/min.
The mass spectrometers were operated in data-dependent mode, automatically switching between MS1 and MS2 spectra. MS1 spectra were acquired over a mass-to-charge (m/z) range of 360–1300 m/z at a resolution of 60,000 (at m/z 200) in the Orbitrap using a maximum injection time of 50 ms and an automatic gain control (AGC) target value of 4e5.
In Lumos settings, up to 12 peptide precursors were isolated in (isolation width of 1.2 Th for Lumos1 and 1.7 for Lumos2, maximum injection time of 75 ms, AGC value of 1e5 for Lumos1 and 2e5 for Lumos2), fragmented by HCD using 30% normalized collision energy (NCE) and analyzed in the Orbitrap at a resolution of 15,000 (Lumos2) or 30,000 (Lumos1). The dynamic exclusion duration of fragmented precursor ions was set to 20 s (Lumos1) or 30 s (Lumos2). In Eclipse measurements, a cycle time of 2 s was chosen. Peptides were isolated in the quadrupole with an isolation offset of 1.2 (isolation width of 1.2 Th, maximum injection time of 54 ms, AGC target of 200%) and fragmented by […]

recombinant NME1–4 = assay: nucleoside diphosphate kinase activity assay (ATP production from ADP and GTP, Kinase-GLO); format: biochemical; details: ADP (150 μM) and GTP (150 μM); range over all four enzymes; read-out: EC50 inhibition of NME1–4
Protocol: To evaluate whether KV-50 binding affects NME activity, we performed enzyme activity assays using recombinant NME1–4. The assay measured NME-catalyzed production of ATP from ADP (150 μM) and GTP (150 μM).
Nucleotide diphosphate kinase activity assays. The phosphotransfer activity of the NDPKs (NME1-4) was measured in a reaction mixture containing buffer A (20 mM Tris-HCl pH 8.0, 150 mM NaCl, and 1 mM MgCl2). All the samples were pipetted in replicates on a 384 well plate. One volume of the respective NDPK protein solution (NME1-4) was added from stock proteins (diluted in buffer a to a concentration of 300 pM) to the wells in four replicates. To these wells, one volume of the inhibitors (Six dilutions were prepared, starting with a 30 µM stock solution and then performing three-fold serial dilutions) was added and incubated at room temperature for 30 minutes. Then, one volume of the substrate mixture (300 μM GTP and 30 μM ADP) was added to the protein-inhibitor mixture-containing wells and incubated at room temperature for 30 minutes. Finally, three volumes of the Kinase-GLO reagent (Promega V6711) containing an ATP-dependent firefly luciferase were added to all the wells and five minutes later, the luminescence was measured using a plate reader. Eight different concentrations of ATP (0 - 10 μM) were used as standards for a calibration curve to calculate the amount of ATP produced by the different NDPKs.

[2] = target: casein kinase 2 (CK2) complex proteins (CSNK2A1/3, CSNK2A2, CSNK2B, EIF3J); assay: Kinobead competition assay; format: binding, human; details: dose-dependent competition
Source text: The binding of KV-24 and KV-30 to the nucleotide-binding pocket raises the question of whether these compounds also target other nucleotide-binding proteins, such as kinases. To evaluate potential off-target effects, we performed Kinobead competition assays. This chemoproteomic approach is conceptually very similar to the one used here in that broad spectrum kinase inhibitors are immobilized on beads. […] PDE1C is a cAMP/cGMP nucleotide-binding protein that features two divalent metal cation cofactors. The hydroxamic acid moiety of KV-24 might chelate these metal cofactors, supporting the hypothesis that KV-24 binds the active site of PDE1C. […]
Given that local GTP production by NME1 and NME2 is essential for fueling dynamin-driven endocytosis, we investigated the effect of KV-50-mediated NME1/2 inhibition on fluorescent transferrin (TF) uptake in cells. HeLa cells were treated with KV-50 or known endocytosis inhibitors (Pitstop-2 and Dynasore), and surface-bound and internalized fluorescent TF were quantified. […]
LC-MS/MS. The different sample types were measured with different LC-MS/MS settings. MBLAC2 2-dose competition assays were measured with the Lumos1 setup, MBLAC2 9-dose competition assays were measured with the Lumos2 setup, and kinobeads assays were measured with the Eclipse setup. […]

SW620 cells = assay: SW620 confluency and metabolic activity (Alamar blue assay); format: cell-based; details: Homo sapiens, SW-620
HeLa cells = assay: clathrin-mediated endocytosis of fluorescently labeled transferrin; format: cell-based
Protocol: To test this hypothesis, we measured clathrin-mediated endocytosis of fluorescently labeled transferrin (TF) in the presence and absence of MBLAC2 inhibitors.
CME of transferrin and confocal microscopy analyses.For transferrin uptake experiments HeLa cells were seeded on Matrigel-coated coverslips, and incubated with 0.1 % DMSO, or with 100 µM dynasore, 20 µM KV50, 2 µM KV65, or 2 µM KV79 in media containing 10% FCS at 37°C for 20 h.

ISOC1 = target: T1, ISOC1 (Homo sapiens, UniProt Q96CN7); assay: chemoproteomic competition assay (MV4-11/SW620 lysate, iA/iC/iQ beads, MS readout); format: binding; details: nine-dose competition assay
T1 construct: incubated at increasing concentrations with a mixture of lysates of MV4–11 and SW620 cells; endogenous in cells; host or cells: mixed lysate of MV4-11 and SW620 cells
T1 sequence (Q96CN7 1-298): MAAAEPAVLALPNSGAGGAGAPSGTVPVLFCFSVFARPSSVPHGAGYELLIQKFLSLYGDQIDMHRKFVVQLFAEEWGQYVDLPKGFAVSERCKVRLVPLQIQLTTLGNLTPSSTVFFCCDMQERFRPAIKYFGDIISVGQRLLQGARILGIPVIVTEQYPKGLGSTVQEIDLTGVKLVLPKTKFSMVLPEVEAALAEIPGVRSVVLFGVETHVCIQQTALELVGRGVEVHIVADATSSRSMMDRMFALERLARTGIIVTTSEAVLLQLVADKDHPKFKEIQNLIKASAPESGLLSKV
Protocol: as §1, §2
(§4) Sample preparation. […]
as §3
(§5) Peptides were analyzed via LC–MS/MS on a Dionex Ultimate3000 nano HPLC coupled to either one of two Orbitrap Fusion Lumos mass spectrometers, or to an Orbitrap Eclipse mass spectrometer, operated via the Thermo Scientific Xcalibur software. […]
In Lumos settings, up to 12 peptide precursors were isolated in (isolation width of 1.2 Th for Lumos1 and 1.7 for Lumos2, maximum injection time of 75 ms, AGC value of 1e5 for Lumos1 and 2e5 for Lumos2), fragmented by HCD using 30% normalized collision energy (NCE) and analyzed in the Orbitrap at a resolution of 15,000 (Lumos2) or 30,000 (Lumos1). […] Peptides were isolated in the quadrupole with an isolation offset of 1.2 (isolation width of 1.2 Th, maximum injection time of 54 ms, AGC target of 200%) and fragmented by HCD with an NCE of 30% and analyzed in the Orbitrap at a resolution of 30,000. […]

MBLAC2 = target: T2, MBLAC2 (Homo sapiens, UniProt Q68D91); assay: as above; format: binding; details: two-dose (1 μM and 10 μM) assay
T2 construct: incubated at increasing concentrations with a mixture of lysates of MV4–11 and SW620 cells; endogenous in cells; host or cells: mixed lysate of MV4-11 and SW620 cells
T2 sequence (Q68D91 1-279): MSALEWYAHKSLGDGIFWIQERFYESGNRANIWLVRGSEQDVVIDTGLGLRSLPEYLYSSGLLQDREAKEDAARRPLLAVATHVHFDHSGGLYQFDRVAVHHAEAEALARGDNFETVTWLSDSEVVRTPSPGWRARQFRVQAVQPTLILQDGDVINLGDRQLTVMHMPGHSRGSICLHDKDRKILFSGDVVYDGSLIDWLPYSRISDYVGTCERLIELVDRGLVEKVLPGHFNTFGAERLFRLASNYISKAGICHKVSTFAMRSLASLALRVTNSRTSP

HDAC6 = target: T3, HDAC6 (Homo sapiens, UniProt Q9UBN7); assay: as above; format: binding; details: two-dose (1 μM and 10 μM) assay
T3 construct: incubated at increasing concentrations with a mixture of lysates of MV4–11 and SW620 cells; endogenous in cells; host or cells: mixed lysate of MV4-11 and SW620 cells
T3 sequence (Q9UBN7 1-1215): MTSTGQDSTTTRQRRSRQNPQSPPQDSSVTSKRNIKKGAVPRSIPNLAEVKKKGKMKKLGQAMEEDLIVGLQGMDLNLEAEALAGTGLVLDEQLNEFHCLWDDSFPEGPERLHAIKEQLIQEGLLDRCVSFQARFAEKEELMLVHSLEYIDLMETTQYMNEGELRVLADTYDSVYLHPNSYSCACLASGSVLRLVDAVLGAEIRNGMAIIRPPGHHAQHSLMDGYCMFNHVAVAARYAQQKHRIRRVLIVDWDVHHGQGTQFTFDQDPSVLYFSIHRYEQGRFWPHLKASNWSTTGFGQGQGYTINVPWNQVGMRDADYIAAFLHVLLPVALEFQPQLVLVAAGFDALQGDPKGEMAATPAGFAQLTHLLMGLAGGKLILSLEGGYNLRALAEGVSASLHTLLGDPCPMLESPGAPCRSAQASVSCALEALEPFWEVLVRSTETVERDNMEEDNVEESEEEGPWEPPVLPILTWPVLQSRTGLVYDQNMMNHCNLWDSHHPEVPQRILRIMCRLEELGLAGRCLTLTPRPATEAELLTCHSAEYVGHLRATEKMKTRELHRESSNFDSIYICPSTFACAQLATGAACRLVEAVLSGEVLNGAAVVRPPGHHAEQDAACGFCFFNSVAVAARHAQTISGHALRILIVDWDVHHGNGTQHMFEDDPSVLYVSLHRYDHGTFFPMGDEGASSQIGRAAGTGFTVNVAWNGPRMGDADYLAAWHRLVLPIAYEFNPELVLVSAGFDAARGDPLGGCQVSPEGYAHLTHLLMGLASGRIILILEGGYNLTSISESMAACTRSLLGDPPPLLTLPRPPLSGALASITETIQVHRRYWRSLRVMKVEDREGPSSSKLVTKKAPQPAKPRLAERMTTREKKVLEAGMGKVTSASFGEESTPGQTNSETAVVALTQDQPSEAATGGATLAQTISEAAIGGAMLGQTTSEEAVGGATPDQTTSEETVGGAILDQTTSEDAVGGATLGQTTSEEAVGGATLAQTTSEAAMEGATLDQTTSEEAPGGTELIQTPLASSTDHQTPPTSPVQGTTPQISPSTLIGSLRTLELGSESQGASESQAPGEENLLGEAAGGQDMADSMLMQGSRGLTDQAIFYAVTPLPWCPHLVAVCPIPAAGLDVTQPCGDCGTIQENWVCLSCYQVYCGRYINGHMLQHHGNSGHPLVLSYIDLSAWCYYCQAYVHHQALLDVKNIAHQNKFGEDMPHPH
Protocol: as §1, with “Initially, 12 metal-chelating compounds were profiled at two concentrations (10 μM and 100 μM) (Figure S3).” left out
as §2, §4, §3, §5

NMEs = details: free nonacetylated Quisinostat; prior competition experiments; cited from earlier work

Cl.O=C(NO)c1ccc(-c2nc3ccccc3c3[nH]c4ccccc4c23)cc1 [KV-50]
targets / off-targets bound [1]: bound to HINT1 and NME4
EC50 (recombinant NME1–4): 2 to 5 µM
EC50 [2]: 1 to 2 µM
IC50 (SW620 cells; SW620, Alamar blue, read-out: concentration decreasing metabolic activity by 50%): 3.6 µM
IC50 (SW620 cells; read-out: concentration reducing SW620 cell confluency by 50%): 0.87 µM
morphological changes (HeLa cells; HeLa cells under TF assay conditions, similar in SW-620 and HEK293T): rounding and swelling of cells
ratio of internalized TF to surface-bound TF (HeLa cells; HeLa cells, 20 µM, 20 h): reduced ratio of internalized TF to surface-bound TF

COc1ccc(N(C)c2nc(C)nc3ccccc23)cc1OCCCC(=O)NO [SKLB-23bb]
EC50 (ISOC1): 5.6 µM

CC(=O)c1ccc(CN2c3ccccc3Sc3ccccc32)cc1 [MM-20]
concentration up to which no binding to MBLAC2 (MBLAC2): > 10 µM
concentration up to which no binding to HDAC6 (HDAC6): > 10 µM

Cn1cc(CNCC2CCN(c3ncc(C(=O)NO)cn3)CC2)c2ccccc21 [Quisinostat]
concentration up to which no binding to NMEs (NMEs): > 30 µM
